In ChEMBL document CHEMBL3885861, “Open TG-GATES”:

Species: Rattus norvegicus
Experiment: Open TG-GATES - Regimen: Single
Format: toxicity, organism-based, Sprague-Dawley
Parameters: regimen Single, gender Male, age 6 weeks
Conditions: in vivo, po, route gavage; for APTT / Bas / Eos / Fbg / Hb / Ht / Lym / MCH / MCHC / MCV / Mono / Neu / PT / Plat / RBC / Ret / WBC: tissue Blood; for KIDNEY_L / KIDNEY_R / KIDNEY_TOTAL: tissue Kidney; for LIVER: tissue Liver; for A/G / ALP / ALT / AST / BUN / CRE / Ca / Cl / DBIL / GLC / IP / K / LDH / Na / PL / RALB / TBIL / TC / TG / TP / gamma-GTP: tissue Plasma
[1] = 100 mg/kg, 3 h, dose level Middle
[2] = 100 mg/kg, 6 h, dose level Middle
[3] = 100 mg/kg, 9 h, dose level Middle
[4] = 100 mg/kg, 24 h, dose level Middle
[5] = 300 mg/kg, 3 h, dose level High
[6] = 300 mg/kg, 6 h, dose level High
[7] = 300 mg/kg, 9 h, dose level High
[8] = 300 mg/kg, 24 h, dose level High

Cc1ccc(C)c(OCCCC(C)(C)C(=O)O)c1 [GEMFIBROZIL]
TERMINAL_BW [1]: 221.2 g
APTT [1]: 15.4 s
Bas [1]: 0%
Eos [1]: 0.8%
Fbg [1]: 283.2 mg/dL
Hb [1]: 13.4 g/dL
Ht [1]: 39.6%
Lym [1]: 78.2%
MCH [1]: 21.5 pg
MCHC [1]: 33.8%
MCV [1]: 63.4 fL
Mono [1]: 3.2%
Neu [1]: 17.4%
PT [1]: 12.4 s
Plat [1]: 116.9 x10_4/uL
RBC [1]: 624.4 x10_4/ul
Ret [1]: 7.2%
WBC [1]: 76.9 x10_2/uL
KIDNEY_L [1]: 1 g
KIDNEY_R [1]: 1 g
KIDNEY_TOTAL [1]: 1.9 g
LIVER [1]: 9.4 g
A/G [1]: 0.8
ALP [1]: 1811 IU/L
ALT [1]: 47.8 IU/L
AST [1]: 80.8 IU/L
BUN [1]: 11.8 mg/dL
CRE [1]: 0.2 mg/dL
Ca [1]: 11.4 mg/dL
Cl [1]: 104.8 meq/L
DBIL [1]: 0.068 mg/dL
GLC [1]: 177 mg/dL
IP [1]: 10.2 mg/dL
K [1]: 4.3 meq/L
LDH [1]: 68.8 IU/L
Na [1]: 140.6 meq/L
PL [1]: 174.2 mg/dL
RALB [1]: 2.5 g/dL
TBIL [1]: 0.072 mg/dL
TC [1]: 88 mg/dL
TG [1]: 155.6 mg/dL
TP [1]: 5.5 g/dL
gamma-GTP [1]: 1.2 IU/L
TERMINAL_BW [2]: 224.5 g
APTT [2]: 14.9 s
Bas [2]: 0%
Eos [2]: 0.8%
Fbg [2]: 297 mg/dL
Hb [2]: 13.9 g/dL
Ht [2]: 40.4%
Lym [2]: 76.2%
MCH [2]: 21.1 pg
MCHC [2]: 34.4%
MCV [2]: 61.2 fL
Mono [2]: 2.8%
Neu [2]: 19.4%
PT [2]: 12 s
Plat [2]: 124.5 x10_4/uL
RBC [2]: 659.6 x10_4/ul
Ret [2]: 7.6%
WBC [2]: 87.8 x10_2/uL
KIDNEY_L [2]: 0.9 g
KIDNEY_R [2]: 0.9 g
KIDNEY_TOTAL [2]: 1.9 g
LIVER [2]: 8.7 g
A/G [2]: 0.9
ALP [2]: 1550.4 IU/L
ALT [2]: 42.4 IU/L
AST [2]: 69.6 IU/L
BUN [2]: 9.8 mg/dL
CRE [2]: 0.2 mg/dL
Ca [2]: 11.3 mg/dL
Cl [2]: 107.2 meq/L
DBIL [2]: 0.072 mg/dL
GLC [2]: 181.2 mg/dL
IP [2]: 10.7 mg/dL
K [2]: 4.2 meq/L
LDH [2]: 61.2 IU/L
Na [2]: 142 meq/L
PL [2]: 158.2 mg/dL
RALB [2]: 2.7 g/dL
TBIL [2]: 0.056 mg/dL
TC [2]: 83.4 mg/dL
TG [2]: 89.2 mg/dL
TP [2]: 5.5 g/dL
gamma-GTP [2]: 1 IU/L
TERMINAL_BW [3]: 221.6 g
APTT [3]: 16 s
Bas [3]: 0%
Eos [3]: 0.8%
Fbg [3]: 274.2 mg/dL
Hb [3]: 13.8 g/dL
Ht [3]: 39.9%
Lym [3]: 68.2%
MCH [3]: 21.4 pg
MCHC [3]: 34.6%
MCV [3]: 62 fL
Mono [3]: 2.8%
Neu [3]: 27.4%
PT [3]: 12.1 s
Plat [3]: 125.1 x10_4/uL
RBC [3]: 643.8 x10_4/ul
Ret [3]: 7%
WBC [3]: 83.1 x10_2/uL
KIDNEY_L [3]: 1 g
KIDNEY_R [3]: 0.9 g
KIDNEY_TOTAL [3]: 1.9 g
LIVER [3]: 8 g
A/G [3]: 0.9
ALP [3]: 1612 IU/L
ALT [3]: 41.8 IU/L
AST [3]: 70 IU/L
BUN [3]: 10.8 mg/dL
CRE [3]: 0.2 mg/dL
Ca [3]: 11 mg/dL
Cl [3]: 106.8 meq/L
DBIL [3]: 0.082 mg/dL
GLC [3]: 186.8 mg/dL
IP [3]: 11 mg/dL
K [3]: 4.1 meq/L
LDH [3]: 53.4 IU/L
Na [3]: 142.8 meq/L
PL [3]: 131.2 mg/dL
RALB [3]: 2.6 g/dL
TBIL [3]: 0.054 mg/dL
TC [3]: 67.6 mg/dL
TG [3]: 59 mg/dL
TP [3]: 5.5 g/dL
gamma-GTP [3]: 1.2 IU/L
TERMINAL_BW [4]: 225.5 g
APTT [4]: 14.8 s
Bas [4]: 0%
Eos [4]: 0.6%
Fbg [4]: 269.6 mg/dL
Hb [4]: 13.8 g/dL
Ht [4]: 39.8%
Lym [4]: 83.4%
MCH [4]: 21.8 pg
MCHC [4]: 34.7%
MCV [4]: 62.9 fL
Mono [4]: 2.2%
Neu [4]: 12.8%
PT [4]: 12.3 s
Plat [4]: 115.1 x10_4/uL
RBC [4]: 633.8 x10_4/ul
Ret [4]: 6.7%
WBC [4]: 74 x10_2/uL
KIDNEY_L [4]: 0.9 g
KIDNEY_R [4]: 0.9 g
KIDNEY_TOTAL [4]: 1.8 g
LIVER [4]: 10.4 g
A/G [4]: 0.9
ALP [4]: 1796.8 IU/L
ALT [4]: 43.6 IU/L
AST [4]: 68.2 IU/L
BUN [4]: 15.8 mg/dL
CRE [4]: 0.2 mg/dL
Ca [4]: 11.3 mg/dL
Cl [4]: 105 meq/L
DBIL [4]: 0.072 mg/dL
GLC [4]: 196.8 mg/dL
IP [4]: 7.9 mg/dL
K [4]: 4.1 meq/L
LDH [4]: 56.4 IU/L
Na [4]: 141.6 meq/L
PL [4]: 125.2 mg/dL
RALB [4]: 2.7 g/dL
TBIL [4]: 0.04 mg/dL
TC [4]: 62.6 mg/dL
TG [4]: 69 mg/dL
TP [4]: 5.5 g/dL
gamma-GTP [4]: 1.2 IU/L
TERMINAL_BW [5]: 224.5 g
APTT [5]: 15.3 s
Bas [5]: 0%
Eos [5]: 0.4%
Fbg [5]: 299.8 mg/dL
Hb [5]: 13.9 g/dL
Ht [5]: 40.1%
Lym [5]: 74%
MCH [5]: 22.2 pg
MCHC [5]: 34.6%
MCV [5]: 64.1 fL
Mono [5]: 3.2%
Neu [5]: 20.8%
PT [5]: 12.2 s
Plat [5]: 122 x10_4/uL
RBC [5]: 625.6 x10_4/ul
Ret [5]: 7.4%
WBC [5]: 74.7 x10_2/uL
KIDNEY_L [5]: 0.9 g
KIDNEY_R [5]: 1 g
KIDNEY_TOTAL [5]: 1.9 g
LIVER [5]: 9.5 g
A/G [5]: 0.8
ALP [5]: 1942.2 IU/L
ALT [5]: 47 IU/L
AST [5]: 75.6 IU/L
BUN [5]: 13 mg/dL
CRE [5]: 0.2 mg/dL
Ca [5]: 11.4 mg/dL
Cl [5]: 104.6 meq/L
DBIL [5]: 0.2 mg/dL
GLC [5]: 168 mg/dL
IP [5]: 9.9 mg/dL
K [5]: 4.4 meq/L
LDH [5]: 75.6 IU/L
Na [5]: 141.2 meq/L
PL [5]: 188.8 mg/dL
RALB [5]: 2.7 g/dL
TBIL [5]: 0.082 mg/dL
TC [5]: 83.6 mg/dL
TG [5]: 320 mg/dL
TP [5]: 5.8 g/dL
gamma-GTP [5]: 1.2 IU/L
TERMINAL_BW [6]: 222.4 g
APTT [6]: 14.3 s
Bas [6]: 0%
Eos [6]: 0.6%
Fbg [6]: 305.6 mg/dL
Hb [6]: 13.7 g/dL
Ht [6]: 40%
Lym [6]: 77.4%
MCH [6]: 21 pg
MCHC [6]: 34.2%
MCV [6]: 61.3 fL
Mono [6]: 3.4%
Neu [6]: 17.8%
PT [6]: 11.8 s
Plat [6]: 122.9 x10_4/uL
RBC [6]: 651.8 x10_4/ul
Ret [6]: 6.7%
WBC [6]: 77.1 x10_2/uL
KIDNEY_L [6]: 0.9 g
KIDNEY_R [6]: 0.9 g
KIDNEY_TOTAL [6]: 1.8 g
LIVER [6]: 8.5 g
A/G [6]: 0.9
ALP [6]: 1762.4 IU/L
ALT [6]: 44.2 IU/L
AST [6]: 76.2 IU/L
BUN [6]: 9.8 mg/dL
CRE [6]: 0.2 mg/dL
Ca [6]: 11.4 mg/dL
Cl [6]: 106.4 meq/L
DBIL [6]: 0.1 mg/dL
GLC [6]: 171.2 mg/dL
IP [6]: 10.8 mg/dL
K [6]: 4.3 meq/L
LDH [6]: 61.6 IU/L
Na [6]: 142.6 meq/L
PL [6]: 171.2 mg/dL
RALB [6]: 2.7 g/dL
TBIL [6]: 0.086 mg/dL
TC [6]: 88.2 mg/dL
TG [6]: 121 mg/dL
TP [6]: 5.5 g/dL
gamma-GTP [6]: 1.2 IU/L
TERMINAL_BW [7]: 224.1 g
APTT [7]: 15 s
Bas [7]: 0%
Eos [7]: 0.6%
Fbg [7]: 306.4 mg/dL
Hb [7]: 13.7 g/dL
Ht [7]: 40.2%
Lym [7]: 75.2%
MCH [7]: 21.8 pg
MCHC [7]: 34.1%
MCV [7]: 64.1 fL
Mono [7]: 2.4%
Neu [7]: 21%
PT [7]: 11.9 s
Plat [7]: 117.7 x10_4/uL
RBC [7]: 628 x10_4/ul
Ret [7]: 7.8%
WBC [7]: 52.7 x10_2/uL
KIDNEY_L [7]: 1 g
KIDNEY_R [7]: 0.9 g
KIDNEY_TOTAL [7]: 1.9 g
LIVER [7]: 8.3 g
A/G [7]: 0.9
ALP [7]: 1746.4 IU/L
ALT [7]: 38.8 IU/L
AST [7]: 68 IU/L
BUN [7]: 10.6 mg/dL
CRE [7]: 0.2 mg/dL
Ca [7]: 11.3 mg/dL
Cl [7]: 106.2 meq/L
DBIL [7]: 0.1 mg/dL
GLC [7]: 177.6 mg/dL
IP [7]: 11.8 mg/dL
K [7]: 4.3 meq/L
LDH [7]: 59.4 IU/L
Na [7]: 143.2 meq/L
PL [7]: 143.8 mg/dL
RALB [7]: 2.7 g/dL
TBIL [7]: 0.076 mg/dL
TC [7]: 73.2 mg/dL
TG [7]: 59.6 mg/dL
TP [7]: 5.7 g/dL
gamma-GTP [7]: 1.4 IU/L
TERMINAL_BW [8]: 224.7 g
APTT [8]: 14.7 s
Bas [8]: 0%
Eos [8]: 0.8%
Fbg [8]: 320.4 mg/dL
Hb [8]: 13.6 g/dL
Ht [8]: 39.5%
Lym [8]: 80%
MCH [8]: 21.5 pg
MCHC [8]: 34.4%
MCV [8]: 62.6 fL
Mono [8]: 3.4%
Neu [8]: 15.2%
PT [8]: 12.2 s
Plat [8]: 102.6 x10_4/uL
RBC [8]: 631.8 x10_4/ul
Ret [8]: 6.3%
WBC [8]: 73.6 x10_2/uL
KIDNEY_L [8]: 1 g
KIDNEY_R [8]: 1 g
KIDNEY_TOTAL [8]: 2 g
LIVER [8]: 10.9 g
A/G [8]: 1
ALP [8]: 2167.4 IU/L
ALT [8]: 46.4 IU/L
AST [8]: 74 IU/L
BUN [8]: 12.8 mg/dL
CRE [8]: 0.2 mg/dL
Ca [8]: 11.3 mg/dL
Cl [8]: 105.6 meq/L
DBIL [8]: 0.1 mg/dL
GLC [8]: 189 mg/dL
IP [8]: 8 mg/dL
K [8]: 4 meq/L
LDH [8]: 74.8 IU/L
Na [8]: 141.8 meq/L
PL [8]: 124 mg/dL
RALB [8]: 2.7 g/dL
TBIL [8]: 0.06 mg/dL
TC [8]: 63.6 mg/dL
TG [8]: 67.2 mg/dL
TP [8]: 5.5 g/dL
gamma-GTP [8]: 1.2 IU/L
